Data set [1] has as its system osteoarthritis animal model induced by 1 mg MIA (Monosodium IodoAcetate) in synovium. The data set can be described thus: In vivo anti-osteoarthritis efficacy test, X-ray of joint region. Details: species or system rat (Sprague Dawley). How it is done: FIG. 4 is X-ray radiographs of osteoarthritis animal model (rat) induced by treating 1 mg MIA in synovium at 8 weeks after administering the osteoarthritis composition comprising hydrophilized sulfasalazine and hyaluronic acid according to the present invention of 0 to 8 mM. After inducing an osteoarthritis animal model by treating 1 mg MIA (Monosodium IodoAcetate) to synovium of 8 week-old rat (Sprague Dawley), after 1 week, mixtures prepared in Example 1 was administered by intraarticular injection.

For data set [2] the following is noted: taken orally, maximum dose of 4 g/day; cited from earlier work.
For data set [3] the following is noted: as component of synovial fluid; cited from earlier work.

In the case of `O=C(O)c1cc(/N=N/c2ccc(S(=O)(=O)Nc3ccccn3)cc2)ccc1O` [sulfasalazine], in data set [1] (less than 2 mM (0.08 w/v %)), the anti-osteoarthritis effect result is “anti-osteoarthritis effect could not be shown”. Moreover, the osteoarthritis treatment effect result in data set [1] (low concentration, for example 1 mM) is given as “could not show an effective level of osteoarthritis treatment effect”. Further, the blood concentration in data set [2] is 12000 ng/mL.
On to hyaluronic acid, for which the half life entry in data set [3] is “more than 13 hours”.
